{
  "source": "patent EP0183174A2",
  "about": "“Substituted phenoxy urea, processes for its preparation and herbicide containing it as active ingredient” (KUMIAI CHEMICAL INDUSTRY CO., LTD., priority 1984, dated 1986)",
  "conditions_in_all_cases": "evaluated twenty days after application",
  "key": {"sugar beet": {"test_system": "sugar beet", "assay": "Test Example 3: herbicidal test by upland soil treatment (phytotoxicity)", "format": "in vivo", "from_the_text": "(§1) Into each plastic pot of 600 cm^2, upland soil was filled, then seeds of barnyardgrass, crabgrass, green foxtail, redroot pigweed, rice flatsedge, rice, wheat, maize, soybean, cotton and sugar beet were sown, and they were covered with soil. A predetermined amount of the wettable powder prepared from the test compound in accordance with Formulation Example 3 and diluted with water, was uniformly applied to the surface of the soil at an application rate of 1000 liter/hectare by means of a small size spray. They were grown in a greenhouse, and twenty days after the application, the herbicidal effects and phytotoxicity were evaluated in accordance with the standards as identified in Table 5."}, "green foxtail": {"test_system": "green foxtail", "assay": "Test Example 3: herbicidal test by upland soil treatment", "format": "in vivo, Setaria viridis L.", "parameters": "key: 5: Withered; 4.5: Herbicidal effect (or phytotoxicity) in a range of 90 to 99%; 4: Herbicidal effect (or phytotoxicity) in a range of 80 to 89%; 3.5: Herbicidal effect (or phytotoxicity) in a range of 70 to 79%; 3: Herbicidal effect (or phytotoxicity) in a range of 60 to 69%; 2.5: Herbicidal effect (or phytotoxicity) in a range of 50 to 59%; 2: Herbicidal effect (or phytotoxicity) in a range of 40 to 49%; 1.5: Herbicidal effect (or phytotoxicity) in a range of 30 to 39%; 1: Herbicidal effect (or phytotoxicity) in a range of 20 to 29%; 0.5: Herbicidal effect (or phytotoxicity) in a range of 1 to 19%; 0: No herbicidal effect (or no phytotoxicity)", "from_the_text": "as §1"}, "soybean": {"test_system": "soybean", "assay": "Test Example 3: herbicidal test by upland soil treatment (phytotoxicity)", "format": "in vivo", "parameters": "key: 5: Withered; 4.5: Herbicidal effect (or phytotoxicity) in a range of 90 to 99%; 4: Herbicidal effect (or phytotoxicity) in a range of 80 to 89%; 3.5: Herbicidal effect (or phytotoxicity) in a range of 70 to 79%; 3: Herbicidal effect (or phytotoxicity) in a range of 60 to 69%; 2.5: Herbicidal effect (or phytotoxicity) in a range of 50 to 59%; 2: Herbicidal effect (or phytotoxicity) in a range of 40 to 49%; 1.5: Herbicidal effect (or phytotoxicity) in a range of 30 to 39%; 1: Herbicidal effect (or phytotoxicity) in a range of 20 to 29%; 0.5: Herbicidal effect (or phytotoxicity) in a range of 1 to 19%; 0: No herbicidal effect (or no phytotoxicity)", "from_the_text": "as §1"}},
  "data": [
    {"smiles": "CN(C)C(=O)NOc1cc(Cl)ccc1Cl", "note": "[Compound No. 1, 3-(2,5-Dichlorophenoxy)-1,1-dimethyl urea]", "values": [
      {"measurement": "Phytotoxicity Sugar beet", "setting": "sugar beet; Dose 1 kg/HA", "result": "2 (Herbicidal effect (or phytotoxicity) in a range of 40 to 49%)"},
      {"measurement": "Phytotoxicity Sugar beet", "setting": "sugar beet; Dose 4 kg/HA", "result": "3 (Herbicidal effect (or phytotoxicity) in a range of 60 to 69%)"},
      {"measurement": "Herbicidal effects Green foxtail", "setting": "green foxtail; Dose 1 kg/HA", "result": 5},
      {"measurement": "Herbicidal effects Green foxtail", "setting": "green foxtail; Dose 4 kg/HA", "result": 5},
      {"measurement": "Phytotoxicity Soybean", "setting": "soybean; Dose 1 kg/HA", "result": 0},
      {"measurement": "Phytotoxicity Soybean", "setting": "soybean; Dose 4 kg/HA", "result": 0}
    ]}
  ]
}
